The record followed here is article PMC9973015 (mBio, 2023).

A short description of one data set: in vitro. The conditions noted are these: African green monkey.
The target of a further data set is human cathepsin L (Homo sapiens, UniProt P07711). The experiment in a line: biochemical.
The subject of a further data set is SARS-CoV-2 WT-USA-WA1. As to the kind of experiment: microbe, parasite or virus in culture. It is filed as cell-based. The settings on record: Severe acute respiratory syndrome coronavirus 2, Vero C1008, read-out: SARS-CoV-2 WT-USA-WA1 EC50.
The next data set deals with SARS-CoV-2 WT-GHB-03021. As to the kind of experiment: microbe, parasite or virus in culture. It is filed as cell-based. The conditions noted are these: Severe acute respiratory syndrome coronavirus 2, Vero C1008, read-out: SARS-CoV-2 WT-GHB-03021 EC50.

Chain of human cathepsin L (P07711 114-333): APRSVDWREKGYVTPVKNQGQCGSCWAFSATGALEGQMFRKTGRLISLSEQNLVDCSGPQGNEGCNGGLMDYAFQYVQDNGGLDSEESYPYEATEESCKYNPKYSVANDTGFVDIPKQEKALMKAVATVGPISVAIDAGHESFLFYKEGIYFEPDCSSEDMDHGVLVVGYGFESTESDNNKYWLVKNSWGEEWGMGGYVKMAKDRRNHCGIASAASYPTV

Molecule `COc1cccc2[nH]c(C(=O)N3C[C@@H]4CCC[C@@H]4[C@H]3C(=O)N[C@@H](C[C@@H]3CCCNC3=O)C(=O)CO)cc12` [ALG-097161, (1S,3aR,6aS)-N-((S)-4-Hydroxy-3-oxo-1-((S)-2-oxopiperidin-3-yl)butan-2-yl)-2-(4-methoxy-1H-indole-2-carbonyl)octahydrocyclopenta[c]pyrrole-1-carboxamide] came in with a CC50 in “in vitro” of over 10000 nM. In addition, the IC50 at human cathepsin L was over 10000 nM. In addition, the EC50 amounted to 600 nM in the data set on SARS-CoV-2 WT-USA-WA1 and 590 nM with SARS-CoV-2 WT-GHB-03021. Besides, in the data set on VeroE6 cells, the “effect on the viability of uninfected host cells” value was “no effect”.
In turn, `Cn1cnc(Cn2c(=O)[nH]/c(=N\c3cc4cn(C)nc4cc3Cl)n(Cc3cc(F)c(F)cc3F)c2=O)n1` [Ensitrelvir, ensitrelvir] gave a concentration for half-maximal inhibition (IC50) on human cathepsin L of over 10000 nM. The EC50 in the data set with SARS-CoV-2 WT-USA-WA1 is 210 nM.
Take `CC(C)(C)[C@H](NC(=O)C(F)(F)F)C(=O)N1C[C@H]2[C@@H]([C@H]1C(=O)N[C@H](C#N)C[C@@H]1CCNC1=O)C2(C)C` [Nirmatrelvir, nirmatrelvir]: in “in vitro”, the CC50 is over 10000 nM. In addition, the results for the EC50 with SARS-CoV-2 WT-USA-WA1 and with SARS-CoV-2 WT-GHB-03021 were 110 nM and 120 nM, respectively.
In “in vitro”, `COc1cccc2[nH]c(C(=O)N[C@@H](CC(C)C)C(=O)N[C@@H](C[C@@H]3CCNC3=O)C(=O)CO)cc12` [PF-00835231] registered a CC50 of over 10000 nM. At human cathepsin L, this molecule showed an IC50 of 130 nM. Further, the EC50 in the data set on SARS-CoV-2 WT-GHB-03021 turned out to be 190 nM.

For orientation: IC50 means the concentration needed to halve the response being measured. A word on the EC50: it is the concentration that produces a half-maximal response.
